{
  "source": "patent US5420140A",
  "about": "“Difluorinated quinolones useful for treating bacterial infections” (Bouchara S.A., priority 1991, dated 1995)",
  "key": {"[1]": {"test_system": "Bacillus subtilis ATCC 9372", "assay": "Determination of MIC and MBC by microdilution method, Bacillus subtilis ATCC 9372", "type": "cell-based", "conditions": "for Minimal inhibitory concentration (MIC): Mueller-Hinton broth", "description": "(§1) The compound have been tested towards 7 reference strains:\nBacillus subtilis ATCC 9372\n(§2) The determination of minimal inhibitory concentrations (MIC) has been performed using a microdution method (microplates and inoculator Dynatech) in liquid medium (MUELLER-HINTON broth) under a volume of 100 μl and for a range of concentrations from 128 to 0.06 mg/l, prepared from a mother liquor of antibiotics titrating 512 mg/l. The preparation of these mother liquors has been performed and vary depending on the molecules as a function of the solubility criterions. Inoculation has been done by adding in each will, 10 μl of a dilution in saline of 18 hours old broth in a brain-heart broth, such as each well contains about 10^6 bacterias/ml.\n(§3) The Minimal Inhibitory Concentrations are read as the first concentration of antibiotic which will not give a growth macroscopically detectable after 18 hours incubating at 37°."}, "[2]": {"test_system": "Staphylococcus aureus ATCC 25923", "assay": "Determination of MIC and MBC by microdilution method, Staphylococcus aureus ATCC 25923", "type": "cell-based", "description": "as §1\nStaphylococcus aureus ATCC 25923\nas §2, §3"}, "[3]": {"test_system": "Streptococcus faecalis ATCC 8043", "assay": "Determination of MIC and MBC by microdilution method, Streptococcus faecalis ATCC 8043", "type": "cell-based", "description": "as §1\nStreptococcus faecalis ATCC 8043\n(§4) The preparation of these mother liquors has been performed and vary depending on the molecules as a function of the solubility criterions. Inoculation has been done by adding in each will, 10 μl of a dilution in saline of 18 hours old broth in a brain-heart broth, such as each well contains about 10^6 bacterias/ml. […]"}, "[4]": {"test_system": "Escherichia coli ATCC 25922", "assay": "Determination of MIC and MBC by microdilution method, Escherichia coli ATCC 25922", "type": "cell-based", "conditions": "E. coli ATCC 25922", "description": "as §1\nEscherichia coli ATCC 25922\nas §2, §3"}, "[5]": {"test_system": "Pseudomonas aeruginosa ATCC 22853", "assay": "Determination of MIC and MBC by microdilution method, Pseudomonas aeruginosa ATCC 22853", "type": "cell-based", "description": "as §1\nPseudomonas aeruginosa ATCC 22853\nas §4"}, "[6]": {"test_system": "Acinetobacter Baumanii ATCC 17904", "assay": "Determination of MIC and MBC by microdilution method, Acinetobacter", "type": "cell-based", "description": "The compound have been tested towards 7 reference strains: […]\nas §2, §3"}, "S. aureus CB-951": {"test_system": "S. aureus CB-951", "assay": "Determination of MIC and MBC by microdilution method, S. aureus CB-951", "type": "cell-based, Staphylococcus aureus", "conditions": "erythromycinolincomycino, pefloxacino resistant", "description": "as §1\nStaphylococcus aureus CB 951\nas §2, §3"}, "[7]": {"conditions": "S. aureus ATCC 25923, Mueller-Hinton broth, 18 hours at 37°"}, "[8]": {"conditions": "S. faecalis ATCC 8043, Mueller-Hinton broth, 18 hours at 37°"}, "[9]": {"conditions": "Mueller-Hinton broth, 18 hours at 37°"}, "[10]": {"conditions": "P. aeruginosa ATCC 22853, Mueller-Hinton broth, 18 hours at 37°"}, "[11]": {"conditions": "Acinetobacter Baumanii ATCC 17904"}, "[12]": {"conditions": "Acinetobacter Baumanii ATCC 17904, Mueller-Hinton broth, 18 hours at 37°"}, "[13]": {"conditions": "S. aureus CB-951, methicillino, Mueller-Hinton broth, 18 hours at 37°"}},
  "data": [
    {"smiles": "C=CCn1cc(C(=O)O)c(=O)c2cc(F)c(N3CCC(CN)CC3)c(F)c21", "note": "[Compound 6, 7-(4-aminomethylpiperidinyl-1) 6,8-difluoro 1-allyl 4-oxo 1,4-dihydroquinoleinyl-3 carboxylic acid]", "values": [
      {"measurement": "MIC", "setting": "[1]; ATCC9372, Mueller-Hinton broth, 18 hours at 37°, read-out: Minimal inhibitory concentration (MIC)", "result": 1, "unit": "µg/mL"},
      {"measurement": "MBC", "setting": "[1]; ATCC9372, read-out: Minimal bactericidal concentration (MBC)", "result": 2, "unit": "µg/mL"},
      {"measurement": "MIC", "setting": "[2]; Staphylococcus aureus, ATCC25923, 18 h, S. aureus ATCC 25923, Mueller-Hinton broth, 18 hours at 37°, read-out: Minimal inhibitory concentration (MIC)", "result": 1, "unit": "µg/mL"},
      {"measurement": "MBC", "setting": "[2]; Staphylococcus aureus, ATCC25923, S. aureus ATCC 25923, read-out: Minimal bactericidal concentration (MBC)", "result": 2, "unit": "µg/mL"},
      {"measurement": "MBC", "setting": "[3]; Enterococcus faecalis, ATCC8043, S. faecalis ATCC 8043, read-out: Minimal bactericidal concentration (MBC)", "result": 4, "unit": "µg/mL"},
      {"measurement": "MIC", "setting": "[3]; Enterococcus faecalis, ATCC8043, S. faecalis ATCC 8043, Mueller-Hinton broth, 18 hours at 37°, read-out: Minimal inhibitory concentration (MIC)", "result": 1, "unit": "µg/mL"},
      {"measurement": "MIC", "setting": "[4]; Escherichia coli, ATCC25922, Mueller-Hinton broth, 18 hours at 37°, read-out: Minimal inhibitory concentration (MIC)", "result": 1, "unit": "µg/mL"},
      {"measurement": "MBC", "setting": "[4]; Escherichia coli, ATCC25922, read-out: Minimal bactericidal concentration (MBC)", "result": 2, "unit": "µg/mL"},
      {"measurement": "MIC", "setting": "[5]; Pseudomonas aeruginosa, ATCC22853, 18 h, P. aeruginosa ATCC 22853, Mueller-Hinton broth, 18 hours at 37°, read-out: Minimal inhibitory concentration (MIC)", "result": 8, "unit": "µg/mL"},
      {"measurement": "MBC", "setting": "[5]; Pseudomonas aeruginosa, ATCC22853, P. aeruginosa ATCC 22853, read-out: Minimal bactericidal concentration (MBC)", "result": 16, "unit": "µg/mL"},
      {"measurement": "MIC", "setting": "[6]; Acinetobacter baumannii, ATCC17904, 18 h, Acinetobacter Baumanii ATCC 17904, Mueller-Hinton broth, 18 hours at 37°, read-out: Minimal inhibitory concentration (MIC)", "result": 1, "unit": "µg/mL"},
      {"measurement": "MBC", "setting": "[6]; Acinetobacter baumannii, ATCC17904, Acinetobacter Baumanii ATCC 17904, read-out: Minimal bactericidal concentration (MBC)", "result": 2, "unit": "µg/mL"},
      {"measurement": "MIC", "setting": "S. aureus CB-951; Staphylococcus aureus, CB951, 18 h, S. aureus CB-951, methicillino, Mueller-Hinton broth, 18 hours at 37°, read-out: Minimal inhibitory concentration (MIC)", "result": 32, "unit": "µg/mL"},
      {"measurement": "MBC", "setting": "S. aureus CB-951; Staphylococcus aureus, CB951, S. aureus CB-951, methicillino, read-out: Minimal bactericidal concentration (MBC)", "result": 64, "unit": "µg/mL"}
    ]},
    {"smiles": "C=CCn1cc(C(=O)O)c(=O)c2cc(F)c(N3CCC(NC(C)=O)CC3)c(F)c21", "note": "[Compound 9, 7-(4-acetylaminopiperidinyl-1) 6,8-difluoro 1-allyl 4-oxo 1,4-dihydroquinoleinyl-3 carboxylic acid]", "values": [
      {"measurement": "Minimal bactericidal concentration (MBC)", "setting": "[1]", "result": 2, "unit": "µg/mL"},
      {"measurement": "Minimal inhibitory concentration (MIC)", "setting": "[1]; 18 hours at 37°", "result": 1, "unit": "µg/mL"},
      {"measurement": "Minimal bactericidal concentration (MBC)", "setting": "[2]; S. aureus ATCC 25923", "result": 4, "unit": "µg/mL"},
      {"measurement": "Minimal inhibitory concentration (MIC)", "setting": "[2]; [7]", "result": 1, "unit": "µg/mL"},
      {"measurement": "Minimal bactericidal concentration (MBC)", "setting": "[3]; S. faecalis ATCC 8043", "result": 16, "unit": "µg/mL"},
      {"measurement": "Minimal inhibitory concentration (MIC)", "setting": "[3]; [8]", "result": 4, "unit": "µg/mL"},
      {"measurement": "Minimal bactericidal concentration (MBC)", "setting": "[4]", "result": 32, "unit": "µg/mL"},
      {"measurement": "Minimal inhibitory concentration (MIC)", "setting": "[4]; [9]", "result": 16, "unit": "µg/mL"},
      {"measurement": "Minimal bactericidal concentration (MBC)", "setting": "[5]; P. aeruginosa ATCC 22853", "result": "> 128", "unit": "µg/mL"},
      {"measurement": "Minimal inhibitory concentration (MIC)", "setting": "[5]; [10]", "result": "> 128", "unit": "µg/mL"},
      {"measurement": "Minimal bactericidal concentration (MBC)", "setting": "[6]; [11]", "result": 8, "unit": "µg/mL"},
      {"measurement": "Minimal inhibitory concentration (MIC)", "setting": "[6]; [12]", "result": 4, "unit": "µg/mL"},
      {"measurement": "Minimal bactericidal concentration (MBC)", "setting": "S. aureus CB-951; S. aureus CB-951, methicillino", "result": 8, "unit": "µg/mL"},
      {"measurement": "Minimal inhibitory concentration (MIC)", "setting": "S. aureus CB-951; [13]", "result": 4, "unit": "µg/mL"}
    ]},
    {"smiles": "C=CCn1cc(C(=O)O)c(=O)c2cc(F)c(N3CCC(CNC(=O)NC(=O)c4ccccc4)CC3)c(F)c21", "note": "[Compound 11, 7-[(4-benzoylaminocarboxamidomethyl)piperidinyl-1] 6,8-difluoro 1-allyl 4-oxo 1,4-dihydroquinoleinyl-3 carboxylic acid]", "values": [
      {"measurement": "Minimal bactericidal concentration (MBC)", "setting": "[1]", "result": 1, "unit": "µg/mL"},
      {"measurement": "Minimal inhibitory concentration (MIC)", "setting": "[1]; 18 hours at 37°", "result": "0,5 μg/ml"},
      {"measurement": "Minimal bactericidal concentration (MBC)", "setting": "[2]; S. aureus ATCC 25923", "result": 4, "unit": "µg/mL"},
      {"measurement": "Minimal inhibitory concentration (MIC)", "setting": "[2]; [7]", "result": 1, "unit": "µg/mL"},
      {"measurement": "Minimal bactericidal concentration (MBC)", "setting": "[3]; S. faecalis ATCC 8043", "result": 32, "unit": "µg/mL"},
      {"measurement": "Minimal inhibitory concentration (MIC)", "setting": "[3]; [8]", "result": 16, "unit": "µg/mL"},
      {"measurement": "Minimal bactericidal concentration (MBC)", "setting": "[4]", "result": "> 128", "unit": "µg/mL"},
      {"measurement": "Minimal inhibitory concentration (MIC)", "setting": "[4]; [9]", "result": 128, "unit": "µg/mL"},
      {"measurement": "Minimal bactericidal concentration (MBC)", "setting": "[5]; P. aeruginosa ATCC 22853", "result": "> 128", "unit": "µg/mL"},
      {"measurement": "Minimal inhibitory concentration (MIC)", "setting": "[5]; [10]", "result": 128, "unit": "µg/mL"},
      {"measurement": "Minimal bactericidal concentration (MBC)", "setting": "[6]; [11]", "result": 4, "unit": "µg/mL"},
      {"measurement": "Minimal inhibitory concentration (MIC)", "setting": "[6]; [12]", "result": 1, "unit": "µg/mL"},
      {"measurement": "Minimal bactericidal concentration (MBC)", "setting": "S. aureus CB-951; S. aureus CB-951, methicillino", "result": 4, "unit": "µg/mL"},
      {"measurement": "Minimal inhibitory concentration (MIC)", "setting": "S. aureus CB-951; [13]", "result": 4, "unit": "µg/mL"}
    ]}
  ]
}
